From US9289503B2, “Fatty acid fumarate derivatives and their uses” (Catabasis Pharmaceuticals, Inc., priority 2010, dated 2016)

Experiments:
Format in all cases: cell-based
[1] = test system: IL-1β; test: IL-1β gene expression in LPS-stimulated RAW264.7 macrophages; conditions: 10 μM; 2 hours pre-incubation, 100 ng/ml LPS 3 hours; compared with 10 μM each DHA and MMF; FIG. 1
Protocol: RAW264.7 macrophages were seeded at a density of 100,000 cells/well in a 96-well plate in DMEM supplemented with 10% FBS and Penn/strep. 16 hours later, medium was aspirated and replaced with 90 μl/well of serum-free DMEM. A fatty acid fumarate conjugate, DHA and monomethyl-fumarate (MMF) were brought up in 100% EtOH to a concentration of 100 mM and then diluted 1:100 in 100% FBS for a stock solution consisting of 1 mM compound and 1% EtOH. these stock solutions were then diluted 1:10 in FBS supplemented with 1% EtOH to generate a 100 μM of a fatty acid fumarate conjugate and 100 μM each of DHA and MMF. 10 μl was then added to the RAW246.7 cells to generate final concentrations 10 μM of the fatty acid fumarate conjugate or 10 μM each DHA and MMF, along with vehicle only control. […] IL-1β and TNF-α transcript levels were then measured using Taqman primer/probe assay sets (Applied Biosystems), normalized to GAPDH using the deltaCt method, and the data expressed relative to vehicle only control. […]
RAW264.7 macrophages are seeded at a density of 100,000 cells/well in a 96-well plate in DMEM supplemented with 10% FBS and Penn/strep. […] Transcript levels are then measured using ABI Taqman primer/probe assay kits, normalized to GAPDH using the deltaCt method, and the data expressed relative to vehicle only control.

[2] = test system: TNF-α; test: TNF-α gene expression in LPS-stimulated RAW264.7 macrophages; conditions: 10 μM; 2 hours pre-incubation, 100 ng/ml LPS 3 hours; compared with 10 μM each DHA and MMF; FIG. 1
Protocol: RAW264.7 macrophages were seeded at a density of 100,000 cells/well in a 96-well plate in DMEM supplemented with 10% FBS and Penn/strep. 16 hours later, medium was aspirated and replaced with 90 μl/well of serum-free DMEM. A fatty acid fumarate conjugate, DHA and monomethyl-fumarate (MMF) were brought up in 100% EtOH to a concentration of 100 mM and then diluted 1:100 in 100% FBS for a stock solution consisting of 1 mM compound and 1% EtOH. these stock solutions were then diluted 1:10 in FBS supplemented with 1% EtOH to generate a 100 μM of a fatty acid fumarate conjugate and 100 μM each of DHA and MMF. 10 μl was then added to the RAW246.7 cells to generate final concentrations 10 μM of the fatty acid fumarate conjugate or 10 μM each DHA and MMF, along with vehicle only control. The compounds were allowed to pre-incubate for 2 hours before stimulation of 100 ng/ml LPS (10 μl of 1 μg/ml LPS was added to each well). Following 3 hours of LPS stimulation, cells were washed once in 1× PBS, aspirated dry, and flash frozen in liquid nitrogen. RNA was then isolated and converted to cDNA using the Cells to cDNA kit (Ambion) according to the manufacturer's protocol. IL-1β and TNF-α transcript levels were then measured using Taqman primer/probe assay sets (Applied Biosystems), normalized to GAPDH using the deltaCt method, and the data expressed relative to vehicle only control. […]

[3] = test system: Hmox1; test: Hmox1 target gene expression in RAW264.7 macrophages; conditions: RAW264.7, 2 hours pre-incubation, 100 ng/ml LPS 3 hours; FIG. 3
Protocol: RAW264.7 macrophages are seeded at a density of 100,000 cells/well in a 96-well plate in DMEM supplemented with 10% FBS and Penn/strep. 16 hours later, medium is aspirated and replaced with 90 μl/well of serum-free DMEM. A fatty acid fumarate conjugate, DHA and EPA are brought up in 100% EtOH to a concentration of 100 mM and then diluted 1:100 In 100% FBS for a 20× stock solution consisting of 1 mM compound and 1% EtOH. The fatty acid fumarate conjugate 20× stock solutions are diluted 1:2 in FBS supplemented with 1% EtOH for a 500 uM 10× stock solution, whereas equal volumes of the DHA and EPA 20× stock solutions are mixed to create a 10× stock solution containing 500 μm each of DHA and EPA. […] The compounds are allowed to pre-incubate for 2 hours before stimulation of 100 ng/ml LPS (10 μl of 1 μg/ml LPS is added to each well). Following 3 hours of LPS stimulation, cells are washed once in 1× PBS, aspirated dry, and flash frozen in liquid nitrogen. RNA is then isolated and converted to cDNA using the Cells to cDNA kit (Ambion) according to the manufacturer's protocol. Transcript levels are then measured using ABI Taqman primer/probe assay kits, normalized to GAPDH using the deltaCt method, and the data expressed relative to vehicle only control.

Compound: CC/C=C\C/C=C\C/C=C\C/C=C\C/C=C\C/C=C\CCC(=O)NCCNC(=O)/C=C/C(=O)OC [Compound I-1, (E)-methyl 4-(2-(4Z,7Z,10Z,13Z,16Z,19Z)-docosa-4,7,10,13,16,19-hexaenamidoethylamino)-4-oxobut-2-enoate]
- IL-1β gene expression [1]: greater reduction
- TNF-α gene expression [2]: greater reduction
- effect on the target gene Hmox1 [3]: positive effect
